Laboratory results reported in publication PMC12586182 (Frontiers in Oncology, 2025).

How the values were obtained:
[1] = molecular target: T1, FLT3 (Homo sapiens, UniProt P36888); test: Kinase panel profiling at 1 µmol/L (mobility shift assay, Carna); type: biochemical; settings: 1 µmol/L of BTK inhibitor
T1 construct: purchased Carna Biosciences
T1 sequence (P36888 27-993): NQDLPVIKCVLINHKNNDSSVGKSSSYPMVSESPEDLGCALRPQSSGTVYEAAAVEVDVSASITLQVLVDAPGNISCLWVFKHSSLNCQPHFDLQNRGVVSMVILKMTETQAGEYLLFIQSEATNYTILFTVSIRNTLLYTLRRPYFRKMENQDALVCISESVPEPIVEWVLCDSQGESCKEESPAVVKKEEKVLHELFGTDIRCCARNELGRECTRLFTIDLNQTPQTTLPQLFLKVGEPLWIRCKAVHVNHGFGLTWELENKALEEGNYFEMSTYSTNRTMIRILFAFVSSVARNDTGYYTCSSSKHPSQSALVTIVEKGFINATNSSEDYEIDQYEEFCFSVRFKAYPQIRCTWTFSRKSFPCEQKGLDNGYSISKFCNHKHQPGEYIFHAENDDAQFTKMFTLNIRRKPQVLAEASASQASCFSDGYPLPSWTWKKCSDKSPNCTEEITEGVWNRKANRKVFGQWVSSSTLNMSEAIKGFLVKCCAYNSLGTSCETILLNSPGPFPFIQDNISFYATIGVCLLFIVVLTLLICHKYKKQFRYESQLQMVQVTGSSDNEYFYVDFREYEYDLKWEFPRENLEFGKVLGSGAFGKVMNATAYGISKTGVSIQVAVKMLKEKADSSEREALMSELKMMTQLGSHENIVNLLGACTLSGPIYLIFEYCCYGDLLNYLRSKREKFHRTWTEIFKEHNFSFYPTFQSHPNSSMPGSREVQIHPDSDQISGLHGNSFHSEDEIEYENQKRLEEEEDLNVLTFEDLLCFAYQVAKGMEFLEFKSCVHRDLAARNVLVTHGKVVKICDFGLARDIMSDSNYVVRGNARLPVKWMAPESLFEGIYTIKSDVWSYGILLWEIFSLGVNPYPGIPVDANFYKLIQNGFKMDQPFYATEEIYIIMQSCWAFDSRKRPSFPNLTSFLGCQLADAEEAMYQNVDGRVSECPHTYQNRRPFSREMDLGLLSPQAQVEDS

[2] = molecular target: T2, CDK2/CycA2 (Homo sapiens, UniProt P24941); test: as above; type: biochemical; settings: 1 µmol/L of BTK inhibitor
T2 construct: purchased Carna Biosciences

[3] = molecular target: T3, SRC (Homo sapiens, UniProt P12931); test: as above; type: biochemical; settings: 1 µmol/L of BTK inhibitor
T3 construct: purchased Carna Biosciences

[4] = molecular target: YES (Homo sapiens, UniProt P07947); test: Kinase enzyme activity assay (mobility shift assay, Carna); settings: 1 µmol/L of BTK inhibitor
[5] = molecular target: T4, BMX (Homo sapiens, UniProt P51813); test: Kinase panel profiling at 1 µmol/L (mobility shift assay, Carna); type: biochemical; settings: 1 µmol/L of BTK inhibitor
T4 construct: purchased Carna Biosciences

[6] = system: Hep-G2; test: Cell viability assay (ATPlite); type: cell-based; settings: Homo sapiens, HepG2; Hep-G2 cell line, 72 hours incubation
Experimental: (§1) Intracellular ATP content was used as an indirect readout of cell number using the ATPlite 1Step bioluminescence assay (Revvity, Groningen, the Netherlands). Cells were seeded in 384-well plates at an optimized density to ensure unrestricted growth and maximal signal at the end of the experiment. After 24 hours of incubation, the starting cell number was determined by adding ATPlite to each well of a control plate and recording luminescence on an Envision multimode reader (Revvity, Waltham, MA, USA) ([4]). Compounds were diluted in DMSO in √10-fold steps from 10 mmol/L stocks to obtain 9-point dilution series. After further 31.6-fold dilution in 20 mmol/L HEPES (pH 7.4), the dilution series were added in duplicate to the cells in the 384-well plates to determine the effect of the compounds on cell viability. Vehicle-treated controls were included to determine maximal cell proliferation. The final DMSO concentration was 0.4% (v/v) in all wells. After incubation for an additional 72 hours, the ATP content was measured in each well using ATPlite. The luminescent signal in inhibitor-treated wells was normalized to vehicle-treated control wells to determine the percentage viability at each concentration. Cell doublings were determined by relating the cell number of vehicle-treated controls to the starting cell number for each cell line. The viability assay of a cell line was repeated when the cell doubling deviated > 2-fold from the historic doubling as determined by multiple independent experiments. The quality of the complete assay was determined by a parallel test with doxorubicin on two cell lines. IC50 values were calculated by fitting a four-parameter logistic model to the percentage viability values using IDBS XLfit5 (IDBS, Guildford, United Kingdom). All curves were visually inspected and submitted to an F-test as implemented in IDBS XLfit5. Curves with an F-value above 1.5 were invalidated and IC50 values were maximized at the highest concentration.

[7] = system: CCRF-CEM; test: Cell viability assay (ATPlite); type: cell-based; settings: Homo sapiens; CCRF-CEM cell line, 72 hours incubation
Experimental: as §1

[8] = system: Kasumi-1; test: Cell viability assay (ATPlite); type: cell-based; settings: Homo sapiens; Kasumi-1 cell line, 72 hours incubation
Experimental: as §1

[9] = system: A-375; test: Cell viability assay (ATPlite); type: cell-based; settings: Homo sapiens; A-375 cell line, 72 hours incubation
Experimental: as §1

[10] = system: TOV-21G; test: Cell viability assay (ATPlite); type: cell-based; settings: Homo sapiens, TOV21G; TOV-21G cell line, 72 hours incubation
Experimental: as §1

[11] = system: MV4-11; test: Cell viability assay (ATPlite); type: cell-based; settings: Homo sapiens; MV4-11 cell line, 72 hours incubation
Experimental: as §1

[12] = system: COLO 829; test: Cell viability assay (ATPlite); type: cell-based; settings: Homo sapiens; COLO 829 cell line, 72 hours incubation
Experimental: as §1

[13] = system: SW837; test: Cell viability assay (ATPlite); type: cell-based; settings: Homo sapiens; SW837 cell line, 72 hours incubation
Experimental: as §1

[14] = system: HT-29; test: Cell viability assay (ATPlite); type: cell-based; settings: Homo sapiens; HT-29 cell line, 72 hours incubation
Experimental: as §1

[15] = system: NCI-H2228; test: Cell viability assay (ATPlite); type: cell-based; settings: Homo sapiens; NCI-H2228 cell line, 72 hours incubation
Experimental: as §1

[16] = system: HCC4006; test: Cell viability assay (ATPlite); type: cell-based; settings: Homo sapiens; HCC4006 cell line, 72 hours incubation
Experimental: as §1

[17] = system: A-388; test: Cell viability assay (ATPlite); type: cell-based; settings: Homo sapiens; A-388 cell line, 72 hours incubation
Experimental: as §1

[18] = system: DU4475; test: Cell viability assay (ATPlite); type: cell-based; settings: Homo sapiens, DU-4475; DU4475 cell line, 72 hours incubation
Experimental: as §1

[19] = system: SW480; test: Cell viability assay (ATPlite); type: cell-based; settings: Homo sapiens; SW480 cell line, 72 hours incubation
Experimental: as §1

T4 sequence (P51813 whole entry): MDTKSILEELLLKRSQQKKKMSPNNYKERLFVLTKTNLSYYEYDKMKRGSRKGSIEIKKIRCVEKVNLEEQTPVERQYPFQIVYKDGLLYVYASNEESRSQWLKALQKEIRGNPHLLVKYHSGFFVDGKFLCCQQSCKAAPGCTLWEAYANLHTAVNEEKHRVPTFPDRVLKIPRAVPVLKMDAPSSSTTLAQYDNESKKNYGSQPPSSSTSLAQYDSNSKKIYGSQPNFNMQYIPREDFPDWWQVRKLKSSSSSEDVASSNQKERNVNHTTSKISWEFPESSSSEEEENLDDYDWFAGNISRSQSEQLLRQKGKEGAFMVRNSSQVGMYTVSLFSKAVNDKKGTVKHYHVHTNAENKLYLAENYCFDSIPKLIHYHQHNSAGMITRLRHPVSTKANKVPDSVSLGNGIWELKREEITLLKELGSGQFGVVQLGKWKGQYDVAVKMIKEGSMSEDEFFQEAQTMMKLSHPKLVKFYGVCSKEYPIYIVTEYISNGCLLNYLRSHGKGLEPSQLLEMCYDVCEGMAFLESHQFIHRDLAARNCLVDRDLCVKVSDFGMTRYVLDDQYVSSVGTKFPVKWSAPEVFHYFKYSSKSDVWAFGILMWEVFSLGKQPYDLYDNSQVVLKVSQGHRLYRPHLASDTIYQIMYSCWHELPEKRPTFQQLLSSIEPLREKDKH
YES, sequence (P07947 whole entry): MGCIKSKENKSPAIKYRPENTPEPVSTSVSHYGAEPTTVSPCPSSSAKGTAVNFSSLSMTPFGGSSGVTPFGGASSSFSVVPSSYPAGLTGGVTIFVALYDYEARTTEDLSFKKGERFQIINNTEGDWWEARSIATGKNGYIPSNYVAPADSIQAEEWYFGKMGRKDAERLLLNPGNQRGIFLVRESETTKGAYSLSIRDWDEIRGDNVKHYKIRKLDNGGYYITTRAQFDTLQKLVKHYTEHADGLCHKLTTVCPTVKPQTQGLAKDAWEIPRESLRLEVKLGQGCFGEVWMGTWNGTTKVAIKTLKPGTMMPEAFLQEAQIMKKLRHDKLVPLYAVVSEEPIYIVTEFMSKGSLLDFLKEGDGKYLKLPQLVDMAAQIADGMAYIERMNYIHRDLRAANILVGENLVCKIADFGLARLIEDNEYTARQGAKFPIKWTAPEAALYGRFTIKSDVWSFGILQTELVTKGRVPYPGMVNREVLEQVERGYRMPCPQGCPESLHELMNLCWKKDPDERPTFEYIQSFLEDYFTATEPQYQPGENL
T3 sequence (P12931 whole entry): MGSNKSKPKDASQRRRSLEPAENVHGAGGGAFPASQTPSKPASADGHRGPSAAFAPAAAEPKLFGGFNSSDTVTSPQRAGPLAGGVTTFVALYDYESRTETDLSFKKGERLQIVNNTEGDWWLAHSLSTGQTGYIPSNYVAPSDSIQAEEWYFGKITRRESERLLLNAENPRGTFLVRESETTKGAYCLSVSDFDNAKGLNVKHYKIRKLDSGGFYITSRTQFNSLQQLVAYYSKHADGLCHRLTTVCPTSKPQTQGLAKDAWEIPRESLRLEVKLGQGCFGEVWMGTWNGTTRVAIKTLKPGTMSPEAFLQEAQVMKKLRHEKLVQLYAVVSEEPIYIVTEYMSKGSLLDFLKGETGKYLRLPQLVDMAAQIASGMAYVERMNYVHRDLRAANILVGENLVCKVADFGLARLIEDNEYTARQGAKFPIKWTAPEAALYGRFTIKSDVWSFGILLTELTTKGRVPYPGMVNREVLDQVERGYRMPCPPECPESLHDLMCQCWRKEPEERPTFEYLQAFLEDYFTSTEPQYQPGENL

SMILES | Percentage inhibition of kinase enzyme activity [1] [%] | Percentage inhibition of kinase enzyme activity [2] [%] | Percentage inhibition of kinase enzyme activity [3] [%] | Percentage inhibition of kinase enzyme activity [4] [%] | Percentage inhibition of kinase enzyme activity [5] [%] | also measured
C=CC(=O)N1CCC([C@@H]2CCNc3c(C(N)=O)c(-c4ccc(Oc5ccccc5)cc4)nn32)CC1 [zanubrutinib] | 6.34 |  |  |  |  | 
CC#CC(=O)N1CCC[C@H]1c1nc(-c2ccc(C(=O)Nc3ccccn3)cc2)c2c(N)nccn12 [acalabrutinib] | 3.27 | -5.19 | 10.46 | 21.84 |  | 
COc1ccc(F)cc1C(=O)NCc1ccc(-c2nn([C@@H](C)C(F)(F)F)c(N)c2C(N)=O)cc1 [pirtobrutinib] | -4.18 | -4.56 | 4.75 | 72.60 | 29.35 | 
O=C(c1ccc(Oc2ccccc2)cc1Cl)c1c[nH]c2ncnc(N[C@@H]3CC[C@@H](CO)OC3)c12 [nemtabrutinib] | 99.30 | -1.69 |  |  | 100.05 | IC50 [6]: 0.979 µM; IC50 [7]: 13.7 µM; IC50 [8]: 1.41 µM; IC50 [9]: 0.404 µM; IC50 [10]: 3.78 µM; IC50 [11]: 1.35 µM; IC50 [12]: 1.54 µM; IC50 [13]: 3.81 µM; IC50 [14]: 0.369 µM; IC50 [15]: 7.5 µM; IC50 [16]: 6.17 µM; IC50 [17]: 5.33 µM; IC50 [18]: 1.13 µM; IC50 [19]: 3.34 µM
C=CC(=O)N1CCC[C@@H](n2nc(-c3ccc(Oc4ccccc4)cc3)c3c(N)ncnc32)C1 [ibrutinib] | 62.77 | -11.88 |  |  |  | 
